The values that follow come from the Kinase Knowledgebase extract (Sharma et al. 2016).

One test addresses EGFR (human) (UniProt P00533). The note with it: a431.
The target of test [1] is EGFR (human), P00533 [WT].
For test [2], the target named is EGFR (human), P00533 [T790M].
Sequence of EGFR (human), P00533 [T790M] (P00533 whole entry T790M, looked up): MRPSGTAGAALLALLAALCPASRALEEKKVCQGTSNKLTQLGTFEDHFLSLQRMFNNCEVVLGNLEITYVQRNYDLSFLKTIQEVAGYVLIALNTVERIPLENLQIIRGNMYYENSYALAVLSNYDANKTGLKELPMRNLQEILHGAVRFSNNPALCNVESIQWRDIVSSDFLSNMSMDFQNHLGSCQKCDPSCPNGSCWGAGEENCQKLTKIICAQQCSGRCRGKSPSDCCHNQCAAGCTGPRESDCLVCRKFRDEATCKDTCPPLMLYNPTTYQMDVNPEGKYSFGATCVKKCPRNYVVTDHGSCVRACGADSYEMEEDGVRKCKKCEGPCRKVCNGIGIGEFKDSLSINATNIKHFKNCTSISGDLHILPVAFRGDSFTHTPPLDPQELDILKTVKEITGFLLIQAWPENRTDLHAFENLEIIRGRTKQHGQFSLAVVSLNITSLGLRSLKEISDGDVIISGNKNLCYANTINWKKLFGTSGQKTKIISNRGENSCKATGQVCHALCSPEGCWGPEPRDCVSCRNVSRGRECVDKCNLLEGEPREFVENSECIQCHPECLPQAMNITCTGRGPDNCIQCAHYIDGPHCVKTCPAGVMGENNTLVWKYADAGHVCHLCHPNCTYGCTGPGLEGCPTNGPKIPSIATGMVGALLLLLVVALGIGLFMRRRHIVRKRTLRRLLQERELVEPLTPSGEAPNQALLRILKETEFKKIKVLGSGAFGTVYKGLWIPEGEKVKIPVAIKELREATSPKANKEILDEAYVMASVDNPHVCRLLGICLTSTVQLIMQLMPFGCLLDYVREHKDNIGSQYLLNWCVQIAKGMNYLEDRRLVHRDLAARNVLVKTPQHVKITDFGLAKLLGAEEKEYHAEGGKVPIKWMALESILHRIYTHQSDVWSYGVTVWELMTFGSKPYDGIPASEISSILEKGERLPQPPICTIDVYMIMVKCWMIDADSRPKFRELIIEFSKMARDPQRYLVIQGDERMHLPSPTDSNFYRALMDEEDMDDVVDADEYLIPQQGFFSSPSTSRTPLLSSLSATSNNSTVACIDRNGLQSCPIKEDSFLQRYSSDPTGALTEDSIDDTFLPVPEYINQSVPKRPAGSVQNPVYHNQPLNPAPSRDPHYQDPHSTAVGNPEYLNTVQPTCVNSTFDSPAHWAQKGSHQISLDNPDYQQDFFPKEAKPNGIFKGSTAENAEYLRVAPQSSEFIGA

Sequence of EGFR (human) (P00533 whole entry, looked up): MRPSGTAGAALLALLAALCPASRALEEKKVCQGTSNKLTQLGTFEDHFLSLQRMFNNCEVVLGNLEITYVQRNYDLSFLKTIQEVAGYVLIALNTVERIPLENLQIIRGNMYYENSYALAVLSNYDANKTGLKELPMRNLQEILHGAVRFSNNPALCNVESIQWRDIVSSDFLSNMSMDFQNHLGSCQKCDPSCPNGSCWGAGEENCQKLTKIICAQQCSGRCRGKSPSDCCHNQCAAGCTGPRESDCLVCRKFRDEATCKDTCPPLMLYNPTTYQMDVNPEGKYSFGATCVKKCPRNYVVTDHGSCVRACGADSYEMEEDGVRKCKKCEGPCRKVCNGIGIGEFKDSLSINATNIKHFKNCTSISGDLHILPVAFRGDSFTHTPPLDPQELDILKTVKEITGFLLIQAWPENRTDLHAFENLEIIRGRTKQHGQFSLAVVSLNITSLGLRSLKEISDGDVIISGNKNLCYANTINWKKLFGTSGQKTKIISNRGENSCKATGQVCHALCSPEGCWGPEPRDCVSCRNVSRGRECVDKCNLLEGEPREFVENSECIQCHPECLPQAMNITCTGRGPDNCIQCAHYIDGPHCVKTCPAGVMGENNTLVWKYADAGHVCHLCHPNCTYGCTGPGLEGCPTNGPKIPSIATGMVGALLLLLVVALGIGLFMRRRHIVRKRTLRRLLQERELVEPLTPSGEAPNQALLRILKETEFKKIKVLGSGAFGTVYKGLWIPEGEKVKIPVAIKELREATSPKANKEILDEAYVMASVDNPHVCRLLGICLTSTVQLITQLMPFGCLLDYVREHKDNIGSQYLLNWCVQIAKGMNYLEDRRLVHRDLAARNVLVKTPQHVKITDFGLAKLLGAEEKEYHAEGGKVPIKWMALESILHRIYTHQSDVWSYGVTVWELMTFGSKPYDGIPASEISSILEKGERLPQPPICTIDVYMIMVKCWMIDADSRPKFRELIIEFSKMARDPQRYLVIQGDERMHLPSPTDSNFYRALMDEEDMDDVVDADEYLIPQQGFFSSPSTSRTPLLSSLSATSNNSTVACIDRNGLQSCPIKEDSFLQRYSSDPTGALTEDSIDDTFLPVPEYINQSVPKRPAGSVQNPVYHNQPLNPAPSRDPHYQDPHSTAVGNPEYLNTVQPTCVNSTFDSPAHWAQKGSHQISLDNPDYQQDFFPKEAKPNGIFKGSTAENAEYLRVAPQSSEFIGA
Sequence of EGFR (human), P00533 [WT] (P00533 whole entry, looked up): as above

As for `Nc1ncnc(Nc2ccc(Oc3ccccc3F)c(Cl)c2)c1-c1nc(CNC(=O)CO)co1`, the IC50 at EGFR (human) was found to be 159 nM. This counts as sub-micromolar. `C=CC(=O)NCc1coc(-c2c(N)ncnc2Nc2ccc(OCc3ccccn3)cc2F)n1`: the IC50 was found to be 8.5 nM in test [1] and 171 nM in test [2]. Regarding `C=CC(=O)NCc1coc(-c2c(N)ncnc2Nc2ccc(Oc3ccccc3)c(Cl)c2)n1`, the IC50 in test [1] is 7 nM; in test [2], 3.3 nM. Compound `C=CC(=O)NCCc1cc(-c2cncnc2Nc2ccc(OCc3cccc(F)c3)c(Cl)c2)on1` gave an IC50 against EGFR (human) of 504 nM. For the compound `Nc1ncnc(Nc2ccc(Oc3ccccc3F)c(Cl)c2)c1-c1nc(CNC(=O)CCO)co1`, the IC50 against EGFR (human) turned out to be 826 nM.

Regarding `Cc1ccc(Oc2ccc(Nc3ncnc(N)c3-c3nc(CNC(=O)/C=C/CN(C)C)co3)cc2C)cn1`, the half-maximal inhibitory concentration (IC50) at EGFR (human) turned out to be 326 nM. Still for that read-out and setting: the value for `O=C(/C=C\CO)NCc1cc(-c2cncnc2Nc2ccc(OCc3ccccn3)c(Cl)c2)on1` was 618 nM.

Consider `C=C(CN1CCOCC1)C(=O)NCc1cc(-c2cncnc2Nc2ccc(OCc3ccccn3)c(Cl)c2)on1`, for which the values for the IC50 (in test [1]; against EGFR (human)) were 21.3 nM and 182 nM, respectively.

For `CN(C)C/C=C/C(=O)NCc1coc(-c2cncnc2Nc2ccc(OCc3ccccn3)c(Cl)c2)n1`, the IC50 in test [1] amounted to 4.5 nM; on EGFR (human), 119 nM; in test [2], 156 nM.

As to `C=CC(=O)NCc1coc(-c2cncnc2Nc2ccc(OCc3ccccn3)c(Cl)c2)n1`, the concentration for half-maximal inhibition (IC50) in test [1] was 3.9 nM; in test [2], 13.6 nM.

The compound `C=CC(=O)NCc1coc(-c2c(N)ncnc2Nc2ccc(F)c(C)c2)n1` returned an IC50 on EGFR (human) of 91.2 nM. This counts as double-digit nanomolar. On EGFR (human), `C=C(CN(C)C)C(=O)NCc1coc(-c2c(N)ncnc2Nc2ccc(Oc3ccc(C)nc3)c(C)c2)n1` had an IC50 of 352 nM. Against the preceding compound, the IC50 is about 3.9-fold higher. As to `C=CC(=O)NCc1coc(-c2c(N)ncnc2Nc2ccc(OCc3cccc(F)c3)c(Cl)c2)n1`, the results for the IC50 in test [1] and in test [2] were 27.7 nM and 19 nM, respectively. Consider `CN(C)C/C=C/C(=O)NCc1cc(-c2cncnc2Nc2ccc(OCc3cccc(F)c3)c(Cl)c2)on1`, for which the IC50 against EGFR (human) came out at 111 nM. This counts as sub-micromolar. As for `CN(C)C/C=C/C(=O)NCc1coc(-c2c(N)ncnc2Nc2ccc(OCc3ccccn3)c(Cl)c2)n1`, the IC50 in test [1] is 6.1 nM; against EGFR (human), 29 nM; in test [2], 161 nM.

For the compound `CN(C)C/C=C/C(=O)NCc1cc(-c2cncnc2Nc2ccc(OCc3ccccn3)c(Cl)c2)on1`, the IC50 at EGFR (human) is 5 nM.

Take `C=CC(=O)N(C)Cc1cc(-c2cncnc2Nc2ccc(OCc3cccc(F)c3)c(Cl)c2)on1`: on EGFR (human), the concentration for half-maximal inhibition (IC50) came to 68.7 nM. Turning to `COCCC(=O)NCc1coc(-c2c(N)ncnc2Nc2ccc(Oc3ccccc3F)c(Cl)c2)n1`, on EGFR (human), the IC50 came out at 291 nM. Consider `C=CC(=O)NCc1coc(-c2c(N)ncnc2Nc2ccc(Oc3ccccn3)c(Cl)c2)n1`, for which the half-inhibitory concentration (IC50) in test [1] amounted to 4.2 nM; in test [2] it was 16 nM. On EGFR (human), `C=CC(=O)N1CCC(c2cc(-c3cncnc3Nc3ccc(OCc4cccc(F)c4)c(Cl)c3)on2)CC1` had a 50% inhibitory concentration (IC50) of 3080 nM. The same measure, in the same setting: for `CN(C)C/C=C/C(=O)NCc1coc(-c2c(N)ncnc2Nc2ccc(F)c(Cl)c2)n1` the value was 88 nM. Still for that read-out and setting: for `C=C(CN1CCN(C)CC1)C(=O)NCc1cc(-c2cncnc2Nc2ccc(OCc3ccccn3)c(Cl)c2)on1` the value was 309 nM. On to `C=CC(=O)NCC1COC(c2c(N)ncnc2Nc2ccc(OCc3ccccn3)c(Cl)c2)=N1` (centres undefined), for which the IC50 against EGFR (human) was determined as 130 nM.

For the compound `C=CC(=O)NCc1coc(-c2c(N)ncnc2Nc2ccc(Oc3ccc(C)nc3)c(C)c2)n1`, the 50% inhibitory concentration (IC50) in test [2] was 106 nM. With `C=CC(=O)NCc1cc(-c2cncnc2Nc2ccc(OCc3ccccn3)c(Cl)c2)on1`, the IC50 stood at 9.1 nM in test [1], 2 nM on EGFR (human) and 101 nM in test [2]. As to `C=CC(=O)NCc1coc(-c2c(NC(C)=O)ncnc2Nc2ccc(OCc3ccccn3)c(Cl)c2)n1`, the IC50 on EGFR (human) is 14.2 nM.

At EGFR (human), `C=C(CN(CC)CC)C(=O)NCc1cc(-c2cncnc2Nc2ccc(OCc3ccccn3)c(Cl)c2)on1` showed an IC50 of 391 nM.

On EGFR (human), `C=C(CS(C)(=O)=O)C(=O)NCc1cc(-c2cncnc2Nc2ccc(OCc3ccccn3)c(Cl)c2)on1` came in with an IC50 of 289 nM. On the same count and under the same terms, for `CN(C)C/C=C/C(=O)NCc1coc(-c2c(N)ncnc2Nc2ccc(Oc3ccccc3)c(Cl)c2)n1` the value was 78.5 nM; for `C=C(CN1CCCC1)C(=O)NCc1cc(-c2cncnc2Nc2ccc(OCc3ccccn3)c(Cl)c2)on1`, 266 nM. Turning to `C=CC(=O)NCc1coc(-c2c(NC(C)=O)ncnc2Nc2ccc(Oc3cc(C(F)(F)F)nn3C)c(Cl)c2)n1`, the IC50 in test [1] worked out at 45.4 nM; in test [2], 414 nM. For `C=CC(=O)NCc1cc(-c2cncnc2Nc2ccc(Br)c(Cl)c2F)on1`, on EGFR (human), the IC50 is 65 nM. `C=CC(=O)NCc1coc(-c2c(N)ncnc2Nc2ccc(Oc3ccnn3C)c(Cl)c2)n1`: the half-inhibitory concentration (IC50) in test [1] was found to be 8.4 nM; at EGFR (human), 8.4 nM; in test [2] it was 125 nM. `C=CC(=O)NCc1coc(-c2cncnc2Nc2ccc(F)c(Cl)c2)n1`: the concentration for half-maximal inhibition (IC50) against EGFR (human) is 437 nM. Consider `C=C(CN(C)C)C(=O)NCc1coc(-c2c(N)ncnc2Nc2ccc(OCc3ccccn3)c(Cl)c2)n1`, for which the concentration for half-maximal inhibition (IC50) amounted to 3.2 nM in test [1], 190 nM against EGFR (human) and 2.5 nM in test [2].

On EGFR (human), `Nc1ncnc(Nc2ccc(OCc3ccccn3)c(Cl)c2)c1-c1nc(CNC(=O)CCO)co1` came in with an IC50 of 137 nM. This counts as sub-micromolar. Turning to `C=CC(=O)NCc1cc(-c2cncnc2Nc2ccc(OCc3cccc(F)c3)c(Cl)c2)on1`, the IC50 was 10.3 nM in test [1], 79 nM against EGFR (human) and 40.8 nM in test [2].

For `C=CC(=O)NCc1coc(-c2c(N)ncnc2Nc2ccc(Oc3cccnc3)c(Cl)c2)n1`, the 50% inhibitory concentration (IC50) in test [2] worked out at 22.1 nM. With `C=CC(=O)NCc1coc(-c2c(N)ncnc2Nc2ccc(Oc3cc(Cl)ccc3Cl)c(Cl)c2)n1`, the values for the IC50 in test [1] and in test [2] were 3.9 nM and 3.2 nM, respectively. Take `C=CC(=O)NCc1coc(-c2c(N)ncnc2Nc2ccc(Sc3nccn3C)c(Cl)c2)n1`: the IC50 at EGFR (human) was determined as 424 nM. Consider `C=C(CN(C)C)C(=O)NCc1cc(-c2cncnc2Nc2ccc(OCc3ccccn3)c(Cl)c2)on1`, for which the IC50 turned out to be 8.8 nM in test [1], 1 nM on EGFR (human) and 12.3 nM in test [2]. For `C=C(CN(C)C)C(=O)NCc1coc(-c2cncnc2Nc2ccc(OCc3ccccn3)c(Cl)c2)n1`, in that order: 3.5 nM, 313 nM and 3.4 nM. On to `C=CC(=O)NCc1coc(-c2c(N)ncnc2Nc2ccc(OCc3ccccn3)c(F)c2)n1`, for which the IC50 in test [1] came out at 4.9 nM; in test [2] it was 129 nM. With `C=CC(=O)N1CCCC1c1cc(-c2cncnc2Nc2ccc(OCc3cccc(F)c3)c(Cl)c2)on1` (centres undefined), on EGFR (human), the half-inhibitory concentration (IC50) is 131 nM. Consider `C=C(CN(C)C)C(=O)NCc1coc(-c2c(N)ncnc2Nc2ccc(F)c(Cl)c2)n1`, for which the half-inhibitory concentration (IC50) is 26 nM on EGFR (human) and 6.9 nM in test [2]. Regarding `C=C(CN(C)C)C(=O)NCc1coc(-c2cncnc2Nc2ccc(F)c(Cl)c2)n1`, on EGFR (human), the half-maximal inhibitory concentration (IC50) was found to be 98.6 nM. Still for that read-out and setting: the value for `C=CC(=O)N1CCCC(c2cc(-c3cncnc3Nc3ccc(OCc4cccc(F)c4)c(Cl)c3)on2)C1` (centres undefined) was 1040 nM.

Regarding `C=CC(=O)NCc1coc(-c2c(N)ncnc2Nc2ccc(F)c(Cl)c2)n1`, in test [2], the IC50 stood at 50.1 nM. That is a double-digit nanomolar value.
